Assay results from US20160256398A1 (H. Lundbeck A/S, priority 2009, published 2016).
“Also recorded” adds a separate entry of the source.

Assays:
[1] = 5-way crossover study in healthy volunteers: adverse events by administration form; assay type: in vivo, human
Excerpt: (§1) 23 subject (12 men and 11 women) participated in the trial; due to drop-outs however, not all 23 subjects received all five treatments—see below for details.
The proximal small bowel is approximately the first meter of the jejunum, and the distal small bowel is approximately the last meter of the ileum, including terminal ileum up to the ileo-caecal junction.
The Enterion™ capsule allows targeted delivery of an active substance into any region of the GI tract. The capsule contains a drug reservoir and a separate compartment for a radioactive tracer. The floor of the reservoir acts a piston which is held back against a spring by a polymer filament. By means of gamma scintigraphy (an imaging technique) the exact position of the capsule in the GI tract can be determined real-time. When the capsule has reached its desired position in the GI tract, a magnetic field is applied which causes an antenna in the capsule all to heat up. The heated antenna is in contact with the polymer filament which softens and eventually breaks which sets the piston (reservoir floor) free and rapidly releases the drug. The Enterion™ capsule is available from Partner Tech, UK.
(§2) Blood samples were obtained at regular intervals 240 hours post-dosing of the IR tablet, post-start of the infusion and post-activation of the Enterion™ capsule. […] Additionally, adverse events were recorded. Food (soup) was provided 4 hours post-dose and dinner 10 hours post-dose.
All 23 subjects received treatments A and B; 22 subjects received treatment C; 20 subjects received treatment D; and 19 received treatment E.
The table below summarises the adverse events recorded during the course of the trial.

[2] = 5-way crossover study in healthy volunteers: plasma concentration-time profile; assay type: in vivo, human
Procedure: as §1, §2
The plasma concentration time profiles are depicted in FIG. 1.

[3] = system: acetylcholine, norepinephrine, dopamine, and serotonin in brain regions associated with mood regulation; details: extracellular levels in rat brains; cited from earlier work
[4] = cited from earlier work
[5] = depressed patients; cited from earlier work
[6] = Regimen B: 20 mg, single oral dose, two 10 mg IR tablets, 23 subjects
[7] = Regimen C: 9 mg iv infusion over 6 hours, 22 subjects
[8] = Regimen D: 20 mg solution via Enterion capsule to proximal small bowel, 20 subjects
[9] = Regimen E: 20 mg solution via Enterion capsule to distal small bowel, 19 subjects

**Q.** For Br.Cc1ccc(Sc2ccccc2N2CCNCC2)c(C)c1 [Compound I HBr, 1-[2-(2,4-dimethyl-phenylsulfanyl)-phenyl]piperazine hydrobromide], which Abdominal pain [1, 6] is on record?
**A.** Its Abdominal pain is 2 no of subjects.

**Q.** And the Fatigue [1, 6]?
**A.** Its Fatigue is 2 no of subjects.

**Q.** And the Headache [1, 6]?
**A.** The Headache was 3 no of subjects.

**Q.** What about the “Lightheadedness/postural dizziness (no BP drop)” value [1, 6] of the same molecule?
**A.** Its value is 5 no of subjects.

**Q.** What about the Nausea [1, 6] of the same molecule?
**A.** Its Nausea is 9 no of subjects.

**Q.** And the Retching [1, 6]?
**A.** Its Retching is 1 no of subjects.

**Q.** And the Vomiting [1, 6]?
**A.** Its Vomiting is 2 no of subjects.

**Q.** What about the “Abnormal liver function tests” value [1, 7] of the same molecule?
**A.** Its value is 1 no of subjects.

**Q.** And the Headache [1, 7]?
**A.** The Headache was 2 no of subjects.

**Q.** And the Nausea [1, 7]?
**A.** The Nausea was 1 no of subjects.

**Q.** And the Postural hypotension [1, 7]?
**A.** The Postural hypotension was 2 no of subjects.

**Q.** And the Abdominal pain [1, 8]?
**A.** Its Abdominal pain is 1 no of subjects.

**Q.** What about the Headache [1, 8] of the same molecule?
**A.** Its Headache is 1 no of subjects.

**Q.** What about the “Lightheadedness/postural dizziness (no BP drop)” value [1, 8] of the same molecule?
**A.** Its value is 1 no of subjects.

**Q.** What about the Nausea [1, 8] of the same molecule?
**A.** Its Nausea is 3 no of subjects.

**Q.** And the Postural hypotension [1, 8]?
**A.** The Postural hypotension was 1 no of subjects.

**Q.** And the Pruritis [1, 8]?
**A.** Its Pruritis is 1 no of subjects.

**Q.** And the Vomiting [1, 8]?
**A.** The Vomiting was 1 no of subjects.

**Q.** What about the Abdominal pain [1, 9] of the same molecule?
**A.** The Abdominal pain was 1 no of subjects.

**Q.** And the Nausea [1, 9]?
**A.** Its Nausea is 2 no of subjects.

**Q.** And the Postural hypotension [1, 9]?
**A.** The Postural hypotension was 3 no of subjects.

**Q.** And the Rash [1, 9]?
**A.** Its Rash is 1 no of subjects.

**Q.** With Cc1ccc(Sc2ccccc2N2CCNCC2)c(C)c1 [Compound I, 1-[2-(2,4-dimethyl-phenylsulfanyl)-phenyl]piperazine] as the molecule, how does the “overall number of adverse events” value ([1]; regimen B, IR tablet) read?
**A.** Its value is “most adverse events”.

**Q.** What about the “overall number of adverse events” value ([1]; regimen C, D and E: i.v. infusion, released in the proximal or distal small bowel) of the same molecule?
**A.** The value was “markedly lower number of adverse events”.

**Q.** And the “plasma concentration-time profile, dependence on administration form” value ([2]; IR tablet versus release in the small intestine (FIG. 1, regimens B, D, E))?
**A.** Its value is “virtually independent on whether Compound I is administered in an IR tablet or released in the small intestine”.

**Q.** What about the “characteristics of plasma concentration-time profile” value ([2]; administration in an IR composition) of the same molecule?
**A.** Its value is “relative late tmax and a plasma concentration plateau around tmax”.

**Q.** What about the “levels of acetylcholine, norepinephrine (noradrenaline), dopamine and serotonin in brain” value [3] of the same molecule?
**A.** Its value is “increase; also recorded: significant increases”.

**Q.** What about the “sleep and sexually related adverse events in depressed patients” value ([4]; clinical trials disclosed in WO 2008/113359) of the same molecule?
**A.** Its value is “surprisingly low level”.

**Q.** And the “efficacy in the treatment of major depressive disorder” value ([4]; dosed at 5 and 10 mg)?
**A.** The value was “efficacious”.

**Q.** What about the “safety and tolerability in first clinical trial” value ([4]; dosed at 5 and 10 mg) of the same molecule?
**A.** Its value is “safe and well-tolerated”.

**Q.** With Fc1ccc([C@@H]2CCNC[C@H]2COc2ccc3c(c2)OCO3)cc1 [paroxetine] as the molecule, how does the “nausea with enteric coated, sustained release tablet compared with IR tablet” value [5] read?
**A.** Its value is “less nausea”.

**Q.** And the “other GI related adverse events such as diarrhea, abnormal ejaculation, female genital disorders and dizziness with enteric coated tablet compared with IR tablet” value [5]?
**A.** The value was “appeared to increase”.
